Converted amounts (≈) assume the structure as drawn. Read-outs that look alike come from different tables or passages of the source.
What was measured:
[1] = system: Clostridium perfringens 81; experiment: microbe, parasite or virus in culture; assay type: cell-based; conditions: Clostridium perfringens, 81, 24 h
[2] = system: Clostridium septicum 1128; experiment: Susceptibility of anaerobic bacterial isolates (MIC), agar-dilution; assay type: cell-based; conditions: 24-hour incubation
Protocol: The A80915 antibiotics also are active against anaerobic bacteria. […] End points were read after 24-hour incubation.

[3] = system: Bacteriodes vulgatis 1211; experiment: as above; assay type: cell-based
[4] = system: Peptostreptococcus intermedius 1264; experiment: as above; assay type: cell-based
[5] = system: Bacteriodes thetaiotaomicron 1438; experiment: as above; assay type: cell-based
Bacteriodes fragilis 111 = experiment: as above; assay type: cell-based
[6] = system: Fusobacterium necrophorum 6054A; experiment: as above; assay type: cell-based
Trichomonas foetus = experiment: Anti-protozoan activity (MIC); assay type: cell-based; conditions: Tritrichomonas foetus
Trichomonas vaginalis = experiment: Anti-protozoan activity (MIC); assay type: cell-based
[7] = system: Eubacterium aerofaciens 1235; experiment: Susceptibility of anaerobic bacterial isolates (MIC), agar-dilution; assay type: cell-based; conditions: Collinsella aerofaciens; Eubacterium aerofaciens 1235; agar-dilution, 24-hour incubation; read-out: MIC
[8] = system: Peptococcus asaccharolyticus 1302; experiment: as above; assay type: cell-based
[9] = system: Staphylococcus epidermis EPI1; assay type: cell-based
Protocol: (§1) The A80915 antibiotics inhibit the growth of bacteria which are pathogenic to animal life. […] The MIC's in Table III were determined by conventional agar-dilution assays.

Staphylococcus sp. = assay type: cell-based; conditions: Veterinary organism Staphylococcus sp.; agar-dilution
Protocol: as §1

Pasteurella multocida = assay type: cell-based; conditions: Veterinary organism Pasteurella multocida; agar-dilution
Protocol: as §1

[10] = system: Staphylococcus epidermis 222; assay type: cell-based
Protocol: as §1

[11] = system: Bordetella bronchiseptica; assay type: cell-based; conditions: Veterinary organism Bordetella bronchiseptica; agar-dilution
Protocol: as §1

[12] = system: Staphylococcus aureus X400; assay type: cell-based
Protocol: as §1

[13] = system: Streptococcus pyogenes C203; assay type: cell-based
Protocol: as §1

[14] = system: Staphylococcus aureus V41; assay type: cell-based
Protocol: as §1

Gram-negative = assay type: cell-based; conditions: agar-dilution
Protocol: as §1

[15] = system: Streptococcus pneumoniae Park1; assay type: cell-based
Protocol: as §1

[16] = system: Streptococcus faecium X66; assay type: cell-based; conditions: Enterococcus faecium
Protocol: as §1

Pasteurella hemolytica = assay type: cell-based; conditions: Veterinary organism Pasteurella hemolytica; agar-dilution
Protocol: as §1

Escherichia coli = assay type: cell-based; conditions: Veterinary organism Escherichia coli; agar-dilution
Protocol: as §1

Mycoplasma hyopneumoniae = assay type: cell-based; conditions: Mesomycoplasma hyopneumoniae; Veterinary organism Mycoplasma hyopneumoniae; agar-dilution
Protocol: as §1

[17] = system: Streptococcus faecium 2041; assay type: cell-based; conditions: Enterococcus faecium
Protocol: as §1

Streptococcus sp. = assay type: cell-based; conditions: Veterinary organism Streptococcus sp.; agar-dilution
Protocol: as §1

Salmonella typhimurium = assay type: cell-based; conditions: Salmonella enterica; Veterinary organism Salmonella typhimurium; agar-dilution
Protocol: as §1

[18] = system: Staphylococcus aureus X1.1; assay type: cell-based
Protocol: as §1

Mycoplasma gallisepticum = assay type: cell-based; conditions: Mycoplasmoides gallisepticum; Veterinary organism Mycoplasma gallisepticum; agar-dilution
Protocol: as §1

Candida albicans = experiment: Anti-fungal activity (MIC); assay type: cell-based
[19] = system: Bacteriodes fragilis 1936B; experiment: Susceptibility of anaerobic bacterial isolates (MIC), agar-dilution; assay type: cell-based
[20] = Acute toxicity in mice, intraperitoneal injection; conditions: mouse, in vivo, ip
Excerpt: The acute toxicity of the A80915 antibiotics in mice, when administered by intraperitoneal injection and expressed as LD50, is shown in Table V.

[21] = system: Bacteriodes melaninogenicus 1856/28; experiment: Susceptibility of anaerobic bacterial isolates (MIC), agar-dilution; assay type: cell-based; conditions: Bacteriodes melaninogenicus 1856/28; agar-dilution, 24-hour incubation; read-out: MIC
[22] = system: Fusobacterium symbiosum 1470; experiment: as above; assay type: cell-based
[23] = system: Propionibacterium acnes 79; experiment: as above; assay type: cell-based
[24] = system: Bacteriodes melaninogenicus 2736; experiment: as above; assay type: cell-based
[25] = system: Bacteriodes fragilis 1877; experiment: as above; assay type: cell-based
[26] = system: Peptostreptococcus anaerobius 1428; experiment: as above; assay type: cell-based
[27] = system: Clostridium difficile 2994; experiment: as above; assay type: cell-based; conditions: Clostridioides difficile; Clostridium difficile 2994; agar-dilution, 24-hour incubation; read-out: MIC
Peptococcus prevoti 1281 = experiment: as above; assay type: cell-based
[28] = system: Bacteriodes corrodens 1874; experiment: as above; assay type: cell-based
[29] = Spontaneous loss of nitrogen on standing in solvent; assay type: physicochemical; conditions: standing at room temperature in a solvent such as methanol, ethanol or water
Excerpt: Loss of nitrogen is accelerated by, for example, heating or the addition of salts or mild reducing agents such as sodium hyposulfite, and the like.

[30] = Staphylococcus epidermis EPI1, agar-dilution, read-out: MIC
[31] = Staphylococcus epidermis 222, agar-dilution, read-out: MIC
[32] = Staphylococcus aureus X400, agar-dilution, read-out: MIC
[33] = Streptococcus pyogenes C203, agar-dilution, read-out: MIC
[34] = Staphylococcus aureus V41, agar-dilution, read-out: MIC
[35] = Streptococcus pneumoniae Park1, agar-dilution, read-out: MIC
[36] = Streptococcus faecium X66, agar-dilution, read-out: MIC
[37] = Streptococcus faecium 2041, agar-dilution, read-out: MIC
[38] = Staphylococcus aureus X1.1, agar-dilution, read-out: MIC

With `Cc1c(O)cc2c(c1O)C(=O)[C@@]1(Cl)C[C@@H](Cl)C(C)(C)O[C@@]1(C[C@H]1C(C)(C)[C@@H](Cl)CC[C@]1(C)O)C2=O` [A80915C] the MIC [1] was 8 µg/mL (≈ 14.6 µM), the MIC [2] was 8 µg/mL (≈ 14.6 µM) and the MIC ([3]; 24 h) was over 128 µg/mL. For the same molecule, the MIC ([4]; Peptostreptococcus, 1264, 24 h) was 128 µg/mL (≈ 234 µM), the MIC ([5]; 24 h) was over 128 µg/mL and the MIC (Bacteriodes fragilis 111; 24 h) was 128 µg/mL (≈ 234 µM). It also gave an MIC ([6]; Fusobacterium necrophorum, 6054A, 24 h) of over 128 µg/mL, an MIC (Trichomonas foetus) of over 100 µg/mL and an MIC (Trichomonas vaginalis) of over 100 µg/mL. It also gave an MIC [7] of 8 µg/mL (≈ 14.6 µM), an MIC ([8]; Peptoniphilus asaccharolyticus, Peptococcus asaccharolyticus 1302, agar-dilution, 24-hour incubation, read-out: MIC) of 2 µg/mL (≈ 3.65 µM) and an MIC ([9]; Staphylococcus, EPI1) of over 128 µg/mL. It also gave an MIC (Staphylococcus sp.) of 1.56 µg/mL (≈ 2.85 µM), an MIC (Pasteurella multocida) of 50 µg/mL (≈ 91.3 µM) and an MIC ([10]; Staphylococcus, 222) of over 128 µg/mL. For the same molecule, the MIC [11] was over 50 µg/mL, the MIC ([12]; Staphylococcus aureus, X400) was over 128 µg/mL and the MIC ([13]; Streptococcus pyogenes, C203) was over 128 µg/mL. For the same molecule, the MIC ([14]; Staphylococcus aureus, V41) was over 128 µg/mL, the MIC (Gram-negative) was over 128 µg/mL and the MIC ([15]; Streptococcus pneumoniae, PARK1) was over 128 µg/mL. The MIC ([16]; X66) was over 128 µg/mL, the MIC (Pasteurella hemolytica) was 50 µg/mL (≈ 91.3 µM) and the MIC (Escherichia coli) was over 50 µg/mL. The MIC (Mycoplasma hyopneumoniae) was over 50 µg/mL, the MIC [17]; 2041 was over 128 µg/mL and the MIC (Streptococcus sp.) was 3.12 µg/mL (≈ 5.69 µM). For the same molecule, the MIC (Salmonella typhimurium) was over 50 µg/mL, the MIC ([18]; Staphylococcus aureus, X1.1) was over 128 µg/mL and the MIC (Mycoplasma gallisepticum) was 25 µg/mL (≈ 45.6 µM). For the same molecule, the MIC (Candida albicans) was over 80 µg/mL, the MIC ([19]; 24 h) was 4 µg/mL (≈ 7.3 µM) and the LD50 [20] was over 300 mg/kg. For the same molecule, the MIC [21] was 64 µg/mL (≈ 117 µM), the MIC ([22]; Fusobacterium, 1470, 24 h) was over 128 µg/mL and the MIC ([23]; Cutibacterium acnes, 79, 24 h) was 4 µg/mL (≈ 7.3 µM). For the same molecule, the MIC ([24]; 24 h) was over 128 µg/mL, the MIC ([25]; 24 h) was 4 µg/mL (≈ 7.3 µM) and the MIC ([26]; Peptostreptococcus anaerobius, 1428, 24 h) was 4 µg/mL (≈ 7.3 µM). The MIC [27] was 8 µg/mL (≈ 14.6 µM), the MIC (Peptococcus prevoti 1281; 24 h) was 2 µg/mL (≈ 3.65 µM) and the MIC ([28]; 24 h) was over 128 µg/mL.
For `Cc1c([O-])c([N+]#N)c2c(c1O)C(=O)[C@@]1(Cl)C[C@@H](Cl)C(C)(C)O[C@@]1(C[C@H]1C(C)(C)[C@@H](Cl)CC[C@]1(C)O)C2=O` [A80915D], the MIC [1] was 16 µg/mL (≈ 27.9 µM), the MIC [2] was 16 µg/mL (≈ 27.9 µM) and the MIC ([3]; Bacteriodes vulgatis 1211, agar-dilution, 24-hour incubation, read-out: MIC) was over 128 µg/mL. For the same molecule, the MIC ([4]; Peptostreptococcus intermedius 1264, agar-dilution, 24-hour incubation, read-out: MIC) was 128 µg/mL (≈ 223 µM), the MIC ([5]; Bacteriodes thetaiotaomicron 1438, agar-dilution, 24-hour incubation, read-out: MIC) was over 128 µg/mL and the MIC (Bacteriodes fragilis 111; Bacteriodes fragilis 111, agar-dilution, 24-hour incubation, read-out: MIC) was 16 µg/mL (≈ 27.9 µM). For the same molecule, the MIC ([6]; Fusobacterium necrophorum 6054A, agar-dilution, 24-hour incubation, read-out: MIC) was 8 µg/mL (≈ 13.9 µM), the MIC (Trichomonas foetus) was 25 µg/mL (≈ 43.6 µM) and the MIC (Trichomonas vaginalis) was 25 µg/mL (≈ 43.6 µM). The MIC [7] was 16 µg/mL (≈ 27.9 µM), the MIC ([8]; Peptoniphilus asaccharolyticus, 1302, 24 h) was 4 µg/mL (≈ 6.97 µM) and the MIC [9, 30] was 2 µg/mL (≈ 3.48 µM). The MIC (Staphylococcus sp.) was 0.2 µg/mL (≈ 0.348 µM), the MIC (Pasteurella multocida) was 3.12 µg/mL (≈ 5.44 µM) and the MIC [10, 31] was 1 µg/mL (≈ 1.74 µM). For the same molecule, the MIC [11] was over 50 µg/mL, the MIC [12, 32] was 2 µg/mL (≈ 3.48 µM) and the MIC [13, 33] was 2 µg/mL (≈ 3.48 µM). The MIC [14, 34] was 2 µg/mL (≈ 3.48 µM), the MIC (Gram-negative) was over 128 µg/mL and the MIC [15, 35] was 1 µg/mL (≈ 1.74 µM). It also gave an MIC [16, 36] of 32 µg/mL (≈ 55.8 µM), an MIC (Pasteurella hemolytica) of 12.5 µg/mL (≈ 21.8 µM) and an MIC (Escherichia coli) of over 50 µg/mL. It also gave an MIC (Mycoplasma hyopneumoniae) of 25 µg/mL (≈ 43.6 µM), an MIC [17, 37] of 32 µg/mL (≈ 55.8 µM) and an MIC (Streptococcus sp.) of 3.12 µg/mL (≈ 5.44 µM). It also gave an MIC (Salmonella typhimurium) of over 50 µg/mL, an MIC [18, 38] of 1 µg/mL (≈ 1.74 µM) and an MIC (Mycoplasma gallisepticum) of over 50 µg/mL. It also gave an MIC (Candida albicans) of 10 µg/mL (≈ 17.4 µM), an MIC ([19]; Bacteriodes fragilis 1936B, agar-dilution, 24-hour incubation, read-out: MIC) of 8 µg/mL (≈ 13.9 µM) and an LD50 [20] of 11.8 mg/kg. For the same molecule, the MIC [21] was 32 µg/mL (≈ 55.8 µM), the MIC ([22]; Fusobacterium symbiosum 1470, agar-dilution, 24-hour incubation, read-out: MIC) was over 128 µg/mL and the “loss of nitrogen (stability)” value [29] was “spontaneously lose nitrogen”. It also gave an MIC ([23]; Cutibacterium acnes, Propionibacterium acnes 79, agar-dilution, 24-hour incubation, read-out: MIC) of 16 µg/mL (≈ 27.9 µM), an MIC ([24]; Bacteriodes melaninogenicus 2736, agar-dilution, 24-hour incubation, read-out: MIC) of over 128 µg/mL and an MIC ([25]; Bacteriodes fragilis 1877, agar-dilution, 24-hour incubation, read-out: MIC) of 16 µg/mL (≈ 27.9 µM). It also gave an MIC ([26]; Peptostreptococcus anaerobius 1428, agar-dilution, 24-hour incubation, read-out: MIC) of 8 µg/mL (≈ 13.9 µM), an MIC [27] of 16 µg/mL (≈ 27.9 µM) and an MIC (Peptococcus prevoti 1281; Peptococcus prevoti 1281, agar-dilution, 24-hour incubation, read-out: MIC) of 8 µg/mL (≈ 13.9 µM). The MIC ([28]; Bacteriodes corrodens 1874, agar-dilution, 24-hour incubation, read-out: MIC) was over 128 µg/mL.
For `C=C1CCC(Cl)C(C)(C)C1CC12OC(C)(C)C(Cl)C=C1C(=O)c1c(cc(O)c(C)c1O)C2=O` (centres unmarked) [Compound 5], the MIC [9, 30] was 4 µg/mL (≈ 8.11 µM), the MIC [10, 31] was 4 µg/mL (≈ 8.11 µM) and the MIC [12, 32] was 4 µg/mL (≈ 8.11 µM). It also gave an MIC [13, 33] of 4 µg/mL (≈ 8.11 µM), an MIC [14, 34] of 4 µg/mL (≈ 8.11 µM) and an MIC (Gram-negative) of over 128 µg/mL. The MIC [15, 35] was 4 µg/mL (≈ 8.11 µM), the MIC [16, 36] was 8 µg/mL (≈ 16.2 µM) and the MIC [17, 37] was 8 µg/mL (≈ 16.2 µM). The MIC [18, 38] was 4 µg/mL (≈ 8.11 µM).

Reference: patent US4904590A, “Antibiotic A80915 and process for its production” (Eli Lilly and Company, priority 1988, dated 1990)
